Tests used:
SGK1 (human) = SGK1 (human) (UniProt O00141); test: Flashplate
CSNK1D (human) = CSNK1D (human) (UniProt P48730); test: Flashplate
MARK3 (human) = MARK3 (human) (UniProt P27448); test: Flashplate
CLK2 (human) = CLK2 (human) (UniProt P49760); test: Flashplate
PAK4 (human) = PAK4 (human) (UniProt O96013); test: Flashplate
MLTK (human) = MLTK (human) (UniProt Q9NYL2); test: Flashplate
AURKB (human) = AURKB (human) (UniProt Q96GD4); test: Flashplate
PIM3 (human) = PIM3 (human) (UniProt Q86V86); test: Flashplate
MAPK1 (human) = MAPK1 (human) (UniProt P28482); test: Flashplate
CHEK2 (human) = CHEK2 (human) (UniProt O96017); test: Flashplate
Sequence of CHEK2 (human) (O96017 whole entry, looked up): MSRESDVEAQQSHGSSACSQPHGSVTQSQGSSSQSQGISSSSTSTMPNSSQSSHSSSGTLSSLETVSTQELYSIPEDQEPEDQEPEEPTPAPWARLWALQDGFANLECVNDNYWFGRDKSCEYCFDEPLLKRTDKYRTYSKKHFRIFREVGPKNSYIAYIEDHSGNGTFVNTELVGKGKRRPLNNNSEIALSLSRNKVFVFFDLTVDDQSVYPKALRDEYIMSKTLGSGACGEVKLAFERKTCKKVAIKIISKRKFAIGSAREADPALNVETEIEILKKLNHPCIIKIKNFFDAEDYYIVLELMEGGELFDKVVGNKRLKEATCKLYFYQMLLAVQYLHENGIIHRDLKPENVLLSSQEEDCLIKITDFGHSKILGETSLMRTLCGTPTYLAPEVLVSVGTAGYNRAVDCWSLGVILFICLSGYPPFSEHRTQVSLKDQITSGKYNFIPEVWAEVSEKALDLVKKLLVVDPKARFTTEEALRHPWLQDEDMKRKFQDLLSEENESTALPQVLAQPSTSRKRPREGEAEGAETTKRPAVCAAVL

GSK3A (human) = GSK3A (human) (UniProt P49840); test: Flashplate
TSSK2 (human) = TSSK2 (human) (UniProt Q96PF2); test: Flashplate
CHEK1 (human) = CHEK1 (human) (UniProt O14757); test: Flashplate
CAMK2G (human) = CAMK2G (human) (UniProt Q13555); test: Flashplate
Sequence of CAMK2G (human) (Q13555 whole entry, looked up): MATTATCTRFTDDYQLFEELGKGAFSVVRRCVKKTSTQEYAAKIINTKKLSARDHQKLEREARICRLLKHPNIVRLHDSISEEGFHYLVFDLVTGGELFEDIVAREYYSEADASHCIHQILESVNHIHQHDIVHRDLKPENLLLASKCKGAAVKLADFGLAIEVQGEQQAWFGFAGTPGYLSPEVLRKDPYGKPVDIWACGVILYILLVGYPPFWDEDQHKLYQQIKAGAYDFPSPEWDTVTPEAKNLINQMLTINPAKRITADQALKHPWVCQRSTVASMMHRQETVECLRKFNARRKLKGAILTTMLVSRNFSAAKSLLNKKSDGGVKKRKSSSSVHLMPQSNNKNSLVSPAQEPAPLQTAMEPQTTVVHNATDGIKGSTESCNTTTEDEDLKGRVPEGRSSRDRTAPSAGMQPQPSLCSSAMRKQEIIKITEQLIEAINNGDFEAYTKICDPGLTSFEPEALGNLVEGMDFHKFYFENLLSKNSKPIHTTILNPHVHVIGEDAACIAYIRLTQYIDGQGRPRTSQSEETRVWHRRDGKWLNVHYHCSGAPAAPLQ

CSNK1A1 (human) = CSNK1A1 (human) (UniProt P48729); test: Flashplate
Sequence of CSNK1A1 (human) (P48729 whole entry, looked up): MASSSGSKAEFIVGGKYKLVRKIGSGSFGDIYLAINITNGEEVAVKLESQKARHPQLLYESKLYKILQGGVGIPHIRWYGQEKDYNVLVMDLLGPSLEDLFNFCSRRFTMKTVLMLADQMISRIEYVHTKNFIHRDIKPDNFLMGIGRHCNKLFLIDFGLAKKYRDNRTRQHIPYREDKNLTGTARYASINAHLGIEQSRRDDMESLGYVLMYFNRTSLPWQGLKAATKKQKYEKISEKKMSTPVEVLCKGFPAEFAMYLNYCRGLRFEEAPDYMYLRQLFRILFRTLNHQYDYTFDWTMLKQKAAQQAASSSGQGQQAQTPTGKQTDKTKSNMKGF

NEK4 (human) = NEK4 (human) (UniProt P51957); test: Flashplate
MELK (human) = MELK (human) (UniProt Q14680); test: Flashplate
MAPK13 (human) = MAPK13 (human) (UniProt O15264); test: Flashplate
Sequence of MAPK13 (human) (O15264 whole entry, looked up): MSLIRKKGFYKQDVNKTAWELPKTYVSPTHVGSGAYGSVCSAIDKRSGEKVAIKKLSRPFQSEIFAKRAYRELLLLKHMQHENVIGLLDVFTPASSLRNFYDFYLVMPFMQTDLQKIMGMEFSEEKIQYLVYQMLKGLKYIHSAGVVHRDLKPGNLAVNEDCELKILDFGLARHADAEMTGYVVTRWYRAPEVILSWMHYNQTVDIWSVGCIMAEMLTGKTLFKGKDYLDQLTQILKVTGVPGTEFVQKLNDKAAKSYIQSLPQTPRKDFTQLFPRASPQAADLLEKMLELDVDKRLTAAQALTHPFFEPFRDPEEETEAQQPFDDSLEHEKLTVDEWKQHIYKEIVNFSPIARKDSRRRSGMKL

HIPK2 (human) = HIPK2 (human) (UniProt Q9H2X6); test: Flashplate
CSNK1G2 (human) = CSNK1G2 (human) (UniProt P78368); test: Flashplate
STK17A (human) = STK17A (human) (UniProt Q9UEE5); test: Flashplate
Sequence of STK17A (human) (Q9UEE5 whole entry, looked up): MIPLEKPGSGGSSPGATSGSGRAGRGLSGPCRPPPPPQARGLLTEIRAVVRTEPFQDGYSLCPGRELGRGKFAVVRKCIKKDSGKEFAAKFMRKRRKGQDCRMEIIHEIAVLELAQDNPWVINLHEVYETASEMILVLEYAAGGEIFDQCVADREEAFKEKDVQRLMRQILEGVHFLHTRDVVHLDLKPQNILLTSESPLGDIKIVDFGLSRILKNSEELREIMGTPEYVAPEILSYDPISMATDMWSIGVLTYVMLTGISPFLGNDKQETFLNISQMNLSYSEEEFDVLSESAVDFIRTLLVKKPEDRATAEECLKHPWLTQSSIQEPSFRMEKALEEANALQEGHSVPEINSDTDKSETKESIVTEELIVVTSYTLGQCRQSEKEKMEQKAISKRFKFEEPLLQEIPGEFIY

PAK1 (human) = PAK1 (human) (UniProt Q13153); test: Flashplate
PBK (human) = PBK (human) (UniProt Q96KB5); test: Flashplate
NEK2 (human) = NEK2 (human) (UniProt P51955); test: Flashplate
AKT3 (human) = AKT3 (human) (UniProt Q9Y243); test: Flashplate
CSNK2A1 (human) = CSNK2A1 (human) (UniProt P68400); test: Flashplate
IRAK4 (human) = IRAK4 (human) (UniProt Q9NWZ3); test: Flashplate
CDK1 (human) = CDK1 (human) (UniProt P06493); test: Flashplate
SRPK1 (human) = SRPK1 (human) (UniProt Q96SB4); test: Flashplate
Sequence of SRPK1 (human) (Q96SB4 whole entry, looked up): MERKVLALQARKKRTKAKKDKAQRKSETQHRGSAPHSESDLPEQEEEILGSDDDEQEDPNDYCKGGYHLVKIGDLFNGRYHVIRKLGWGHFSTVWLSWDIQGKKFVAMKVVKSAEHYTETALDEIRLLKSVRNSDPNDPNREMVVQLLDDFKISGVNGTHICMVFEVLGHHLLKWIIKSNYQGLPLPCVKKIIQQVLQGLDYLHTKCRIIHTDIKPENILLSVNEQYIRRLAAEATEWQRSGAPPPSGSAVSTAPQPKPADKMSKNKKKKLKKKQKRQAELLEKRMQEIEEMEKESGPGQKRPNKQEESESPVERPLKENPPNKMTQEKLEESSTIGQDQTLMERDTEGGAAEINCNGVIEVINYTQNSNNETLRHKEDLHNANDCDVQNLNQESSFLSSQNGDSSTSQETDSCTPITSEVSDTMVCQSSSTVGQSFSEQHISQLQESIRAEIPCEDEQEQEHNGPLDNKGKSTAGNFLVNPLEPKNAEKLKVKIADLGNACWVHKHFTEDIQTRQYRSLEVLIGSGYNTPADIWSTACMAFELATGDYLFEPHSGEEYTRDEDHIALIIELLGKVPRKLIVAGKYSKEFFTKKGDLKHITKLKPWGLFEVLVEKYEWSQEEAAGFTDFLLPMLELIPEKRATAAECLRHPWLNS

PDPK1 (human) = PDPK1 (human) (UniProt O15530); test: Flashplate
GSK3B (human) = GSK3B (human) (UniProt P49841); test: Flashplate
ROCK1 (human) = ROCK1 (human) (UniProt Q13464); test: Flashplate
Sequence of ROCK1 (human) (Q13464 whole entry, looked up): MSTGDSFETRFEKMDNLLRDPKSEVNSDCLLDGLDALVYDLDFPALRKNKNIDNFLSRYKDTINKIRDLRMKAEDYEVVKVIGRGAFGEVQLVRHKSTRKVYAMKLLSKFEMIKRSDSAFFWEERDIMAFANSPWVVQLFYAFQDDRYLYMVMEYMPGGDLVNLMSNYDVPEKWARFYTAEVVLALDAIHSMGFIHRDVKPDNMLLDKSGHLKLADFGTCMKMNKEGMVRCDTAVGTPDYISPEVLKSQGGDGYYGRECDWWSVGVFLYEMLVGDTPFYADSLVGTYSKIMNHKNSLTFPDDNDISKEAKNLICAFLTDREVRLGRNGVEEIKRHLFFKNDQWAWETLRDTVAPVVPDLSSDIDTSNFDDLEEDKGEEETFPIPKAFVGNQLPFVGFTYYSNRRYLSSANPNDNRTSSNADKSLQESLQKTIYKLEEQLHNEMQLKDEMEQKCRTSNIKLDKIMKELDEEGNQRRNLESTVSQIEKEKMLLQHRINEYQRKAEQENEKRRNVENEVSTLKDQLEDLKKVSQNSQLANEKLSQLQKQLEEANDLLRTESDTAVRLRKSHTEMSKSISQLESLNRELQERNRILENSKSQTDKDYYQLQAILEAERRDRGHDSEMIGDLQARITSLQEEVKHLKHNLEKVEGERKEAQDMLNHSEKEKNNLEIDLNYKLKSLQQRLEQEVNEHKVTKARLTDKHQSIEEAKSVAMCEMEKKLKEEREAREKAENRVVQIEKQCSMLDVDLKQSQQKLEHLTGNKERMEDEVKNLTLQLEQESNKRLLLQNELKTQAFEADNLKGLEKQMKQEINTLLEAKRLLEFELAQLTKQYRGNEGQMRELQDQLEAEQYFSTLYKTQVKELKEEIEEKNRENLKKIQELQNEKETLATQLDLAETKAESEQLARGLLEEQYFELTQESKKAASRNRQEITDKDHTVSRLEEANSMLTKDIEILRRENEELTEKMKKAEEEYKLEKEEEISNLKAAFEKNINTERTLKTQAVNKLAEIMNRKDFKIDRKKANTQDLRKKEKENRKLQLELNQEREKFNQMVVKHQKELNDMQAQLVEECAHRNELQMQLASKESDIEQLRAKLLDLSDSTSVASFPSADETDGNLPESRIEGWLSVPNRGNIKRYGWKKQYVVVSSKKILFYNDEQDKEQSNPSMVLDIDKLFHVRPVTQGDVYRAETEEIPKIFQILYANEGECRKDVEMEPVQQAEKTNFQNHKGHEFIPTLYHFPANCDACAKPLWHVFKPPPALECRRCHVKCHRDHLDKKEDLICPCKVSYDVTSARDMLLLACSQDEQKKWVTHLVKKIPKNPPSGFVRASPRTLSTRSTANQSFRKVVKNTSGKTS

PIM1 (human) = PIM1 (human) (UniProt P11309); test: Flashplate
DYRK4 (human) = DYRK4 (human) (UniProt Q9NR20); test: Flashplate
PRKCG (human) = PRKCG (human) (UniProt P05129); test: Flashplate
DAPK3 (human) = DAPK3 (human) (UniProt O43293); test: Flashplate
MKNK2 (human) = MKNK2 (human) (UniProt Q9HBH9); test: Flashplate
PRKX (human) = PRKX (human) (UniProt P51817); test: Flashplate
Sequence of PRKX (human) (P51817 whole entry, looked up): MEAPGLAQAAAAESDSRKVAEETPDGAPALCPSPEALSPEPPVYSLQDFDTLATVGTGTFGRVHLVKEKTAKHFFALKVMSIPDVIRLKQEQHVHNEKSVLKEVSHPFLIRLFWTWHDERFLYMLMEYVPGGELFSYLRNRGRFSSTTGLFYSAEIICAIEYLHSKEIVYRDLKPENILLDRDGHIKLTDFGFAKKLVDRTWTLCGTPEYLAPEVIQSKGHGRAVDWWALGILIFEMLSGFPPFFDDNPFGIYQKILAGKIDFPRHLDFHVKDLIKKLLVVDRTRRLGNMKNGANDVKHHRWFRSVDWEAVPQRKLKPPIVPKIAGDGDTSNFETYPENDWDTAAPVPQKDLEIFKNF

MET (human) = MET (human) (UniProt P08581); test: HTRF
TYRO3 (human) = TYRO3 (human) (UniProt Q06418); test: HTRF
KDR (human) = KDR (human) (UniProt P35968); test: HTRF
LYN (human) = LYN (human) (UniProt P07948); test: HTRF

## O=C1c2ccccc2-c2n[nH]c3cccc1c23
SGK1 (human)
  Ki: 0.251 µM
CSNK1D (human)
  Ki: 0.0316 µM
MARK3 (human)
  Ki: 0.00398 µM
CLK2 (human)
  Ki: 0.631 µM
PAK4 (human)
  Ki: > 5.01 µM
MLTK (human)
  Ki: 0.501 µM
AURKB (human)
  Ki: 0.01 µM
PIM3 (human)
  Ki: 0.2 µM
MAPK1 (human)
  Ki: 5.01 µM
CHEK2 (human)
  Ki: 0.501 µM
GSK3A (human)
  Ki: 1.26 µM
TSSK2 (human)
  Ki: > 1.58 µM
CHEK1 (human)
  Ki: 1.26 µM
CAMK2G (human)
  Ki: 1.58 µM
CSNK1A1 (human)
  Ki: 0.316 µM
NEK4 (human)
  Ki: 1 µM
MELK (human)
  Ki: 0.398 µM
MAPK13 (human)
  Ki: > 7.94 µM
HIPK2 (human)
  Ki: 0.2 µM
CSNK1G2 (human)
  Ki: 2 µM
STK17A (human)
  Ki: 0.0398 µM
PAK1 (human)
  Ki: > 10 µM
PBK (human)
  Ki: 1 µM
NEK2 (human)
  Ki: 6.31 µM
AKT3 (human)
  Ki: > 10 µM
CSNK2A1 (human)
  Ki: 0.501 µM
IRAK4 (human)
  Ki: 0.158 µM
CDK1 (human)
  Ki: 1 µM
SRPK1 (human)
  Ki: > 7.94 µM
PDPK1 (human)
  Ki: 0.631 µM
GSK3B (human)
  Ki: 0.316 µM
ROCK1 (human)
  Ki: 2 µM
PIM1 (human)
  Ki: 0.501 µM
DYRK4 (human)
  Ki: > 7.94 µM
PRKCG (human)
  Ki: 0.316 µM
DAPK3 (human)
  Ki: 0.398 µM
MKNK2 (human)
  Ki: 0.316 µM
PRKX (human)
  Ki: > 1.58 µM
MET (human)
  Ki: 0.501 µM
TYRO3 (human)
  Ki: 1 µM
KDR (human)
  Ki: 0.631 µM
LYN (human)
  Ki: 1 µM

— the kinase profiling compilation of Christmann-Franck et al. (2016)
